Where a name gives a salt, the structure may show the parent alone.
How the values were obtained:
P-388 leukemia cells = assay: Antitumor activity against P-388 leukemia cells (i.p. implanted, i.v. drug); type: in vivo, BDF1 mice; settings: i.v., 30-day observation; for response vs control in vivo at 20 mg/kg: dose b: 20 mg/kg/d × 3 (days 1, 5, 9); for response vs control in vivo at 40 mg/kg: dose c: 40 mg/kg/d × 3 (days 1, 5, 9); for response vs control in vivo at 40 mg/kg/day: dose c': 40 mg/kg/d × 2 (days 1, 5); for response vs control in vivo at 20 mg/kg/day: dose b': 20 mg/kg/d × 2 (days 1, 5)
Protocol: BDF1 mice were implanted intraperitoneally with P-388 leukemia cells at a rate of 1×10^6 cells/mouse, and each drug to be tested was administered intravenously on the first, fifth and ninth days, or on the first and fifth days after the implantation. […] The T/C (%) was calculated based on the following equation: [formula]
The drugs tested were as follows: solutions prepared by dissolving each of compound Nos. 34, 36 and 43 to 46 in physiological saline; suspension or solutions prepared by dissolving each of compound Nos. 35, 38 and 49 to 55 in dimethylacetamide, followed by adding thereto a small amount of a surface active agent (e.g., Tween-80) and then physiological saline; and suspension or solutions prepared by mixing each of the other compounds and a small amount of a surface active agent (e.g., Tween-80), followed by adding thereto physiological saline.

[1] = Acute toxicity (LD50, single intravenous administration); parameters: species or system day mice; settings: mouse, in vivo, mice, single i.v.
Source text: In Table 15 are shown acute toxicity values (LD50, mg/kg) in day mice in the case of intravenously administering (once) each of the compounds of this invention in the form of preparations shown in the Preparation Examples shown in Table 16.

[2] = Mus musculus, P388, iv, 720 h, dose f: 80 mg/kg/d × 3 (days 1, 5, 9), read-out: T/C of MST
[3] = Mus musculus, P388, iv, 720 h, read-out: T/C of MST

COC1C(O)C(C)OC(OC2C(Oc3cccc4c(OC(=O)C=Cc5ccco5)c5c(=O)oc6ccc(C)c7c(=O)oc(c34)c5c67)OC(C)C3OC(C)(C)OC32)C1O (stereo not drawn) [Compound 9]
response vs control in vivo at 80 mg/kg (P-388 leukemia cells; [2]): 194% | LD50 ([1]; Preparation Example 3): ≥ 80 mg/kg

COC1C(N)C(C)OC(OC2C(Oc3cccc4c(OC(=O)CCCCCNC(=O)C(F)(F)F)c5c(=O)oc6ccc(C)c7c(=O)oc(c34)c5c67)OC(C)C3OC(c4ccccc4)OC32)C1O (stereo not drawn) [Compound 37, 6-O-(n-trifluoroacetyl-6-amino-n-hexanoyl)-3',4'-O-benzylidene-4"-epiamino-4"-deoxy-chartreusin hydrochloride]
response vs control in vivo at 20 mg/kg (P-388 leukemia cells; [3]): 148% | response vs control in vivo at 40 mg/kg (P-388 leukemia cells; [3]): 191% | LD50 ([1]; Preparation Example 1): ≥ 40 mg/kg

COC1C(O)C(C)OC(OC2C(Oc3cccc4c(OC(=O)c5ccoc5)c5c(=O)oc6ccc(C)c7c(=O)oc(c34)c5c67)OC(C)C3OC(C)(C)OC32)C1O (stereo not drawn) [Compound 7]
response vs control in vivo at 40 mg/kg (P-388 leukemia cells; [3]): 149% | response vs control in vivo at 80 mg/kg (P-388 leukemia cells; [2]): 194% | LD50 ([1]; Preparation Example 3): ≥ 80 mg/kg

COC1C(N)C(C)OC(OC2C(Oc3cccc4c(OC(=O)C(CN)C(C)C)c5c(=O)oc6ccc(C)c7c(=O)oc(c34)c5c67)OC(C)C3OC(c4ccccc4)OC32)C1O (stereo not drawn) [Compound 45]
response vs control in vivo at 30 mg/kg (P-388 leukemia cells; Mus musculus, P388, iv, 720 h, dose j: 30 mg/kg/d × 3 (days 1, 5, 9), read-out: T/C of MST): 131% | LD50 ([1]; Preparation Example 8): ≥ 30 mg/kg

COC1C(N)C(C)OC(OC2C(Oc3cccc4c(OC(=O)C5CC5C)c5c(=O)oc6ccc(C)c7c(=O)oc(c34)c5c67)OC(C)C3OC(c4ccccc4)OC32)C1O (stereo not drawn) [Compound 49]
response vs control in vivo at 40 mg/kg/day (P-388 leukemia cells; [3]): 153% | LD50 ([1]; Preparation Example 6): ≥ 40 mg/kg

COC1C(N)C(C)OC(OC2C(Oc3cccc4c(OC(=O)C(C)CNC(=O)C(F)(F)F)c5c(=O)oc6ccc(C)c7c(=O)oc(c34)c5c67)OC(C)C3OC(C)(C)OC32)C1O (stereo not drawn) [Compound 56]
response vs control in vivo at 80 mg/kg (P-388 leukemia cells; [2]): 138% | LD50 ([1]; Preparation Example 1): ≥ 80 mg/kg

COC1C(N)C(C)OC(OC2C(Oc3cccc4c(OC(=O)CC(C)NC(=O)C(F)(F)F)c5c(=O)oc6ccc(C)c7c(=O)oc(c34)c5c67)OC(C)C3OC(c4ccccc4)OC32)C1O (stereo not drawn) [Compound 41]
response vs control in vivo at 40 mg/kg (P-388 leukemia cells; [3]): 187% | LD50 ([1]; Preparation Example 1): ≥ 40 mg/kg

COC1C(O)C(C)OC(OC2C(Oc3cccc4c(OC(=O)c5ccc[nH]5)c5c(=O)oc6ccc(C)c7c(=O)oc(c34)c5c67)OC(C)C3OC(c4cccc(Br)c4)OC32)C1O (stereo not drawn) [Compound 31]
response vs control in vivo at 40 mg/kg (P-388 leukemia cells; [3]): 128% | LD50 ([1]; Preparation Example 1): ≥ 40 mg/kg

COc1cccc(C(=O)Oc2c3cccc(OC4OC(C)C5OC(c6ccccc6)OC5C4OC4OC(C)C(N)C(OC)C4O)c3c3oc(=O)c4c(C)ccc5oc(=O)c2c3c54)c1 (stereo not drawn) [Compound 51, 6-O-(m-methoxybenzoyl)-3',4'-O-benzylidene-4"-epiamino-4"-deoxy-chartreusin]
response vs control in vivo at 20 mg/kg (P-388 leukemia cells; [3]): 185% | response vs control in vivo at 40 mg/kg (P-388 leukemia cells; [3]): 244% | LD50 ([1]; Preparation Example 6): ≥ 40 mg/kg

COC1C(O)C(C)OC(OC2C(Oc3cccc4c(OC(=O)C=Cc5c[nH]cn5)c5c(=O)oc6ccc(C)c7c(=O)oc(c34)c5c67)OC(C)C3OC(c4ccccc4)OC32)C1O (stereo not drawn) [Compound 16]
response vs control in vivo at 40 mg/kg (P-388 leukemia cells; [3]): 148% | LD50 ([1]; Preparation Example 2): ≥ 40 mg/kg

COC1C(N)C(C)OC(OC2C(Oc3cccc4c(OC(=O)CC(C)C)c5c(=O)oc6ccc(C)c7c(=O)oc(c34)c5c67)OC(C)C3OC(c4ccccc4)OC32)C1O (stereo not drawn) [Compound 39, 6-O-(3-methyl-n-butyryl)-3',4',-O-benzylidene-4"-epiamino-4"-deoxy-chartreusin hydrochloride]
response vs control in vivo at 40 mg/kg (P-388 leukemia cells; [3]): 207% | response vs control in vivo at 60 mg/kg (P-388 leukemia cells; Mus musculus, P388, iv, 720 h, dose e: 60 mg/kg/d × 3 (days 1, 5, 9), read-out: T/C of MST): 240% | LD50 ([1]; Preparation Example 9): ≥ 60 mg/kg

CCCCCC(=O)Oc1c2cccc(OC3OC(C)C4OC(c5ccccc5)OC4C3OC3OC(C)C(N)C(OC)C3O)c2c2oc(=O)c3c(C)ccc4oc(=O)c1c2c43 (stereo not drawn) [Compound 54]
response vs control in vivo at 20 mg/kg/day (P-388 leukemia cells; [3]): 165% | LD50 ([1]; Preparation Example 7): ≥ 40 mg/kg

COC1C(O)C(C)OC(OC2C(Oc3cccc4c(OC(=O)Cc5c[nH]c6ccccc56)c5c(=O)oc6ccc(C)c7c(=O)oc(c34)c5c67)OC(C)C3OC(c4ccccc4)OC32)C1O (stereo not drawn) [Compound 20]
response vs control in vivo at 20 mg/kg (P-388 leukemia cells; [3]): 148% | response vs control in vivo at 40 mg/kg (P-388 leukemia cells; [3]): 286% | LD50 ([1]; Preparation Example 2): ≥ 40 mg/kg

COC1C(O)C(C)OC(OC2C(Oc3cccc4c(OC(=O)C=Cc5ccc6c(c5)OCO6)c5c(=O)oc6ccc(C)c7c(=O)oc(c34)c5c67)OC(C)C3OC(c4ccccc4)OC32)C1O (stereo not drawn) [Compound 21]
response vs control in vivo at 20 mg/kg (P-388 leukemia cells; [3]): 131% | response vs control in vivo at 40 mg/kg (P-388 leukemia cells; [3]): 176% | LD50 ([1]; Preparation Example 2): ≥ 40 mg/kg

COC1C(O)C(C)OC(OC2C(Oc3cccc4c(OC(=O)c5cc6ccccc6[nH]5)c5c(=O)oc6ccc(C)c7c(=O)oc(c34)c5c67)OC(C)C3OC(c4cccc(F)c4)OC32)C1O (stereo not drawn) [Compound 30, 6-O-(2-indolyl-carbonyl)-3',4'-O-(m-fluorobenzylidene)-chartreusin]
response vs control in vivo at 80 mg/kg (P-388 leukemia cells; [2]): 142% | LD50 ([1]; Preparation Example 2): ≥ 80 mg/kg

COC1C(O)C(C)OC(OC2C(Oc3cccc4c(OC(=O)c5ccc(Br)o5)c5c(=O)oc6ccc(C)c7c(=O)oc(c34)c5c67)OC(C)C3OC(C)(C)OC32)C1O (stereo not drawn) [Compound 8, 6-O-{2-(5-bromofuryl)-carbonyl}-3',4'-O-isopropylidene-chartreusin]
response vs control in vivo at 80 mg/kg (P-388 leukemia cells; [2]): 178% | LD50 ([1]; Preparation Example 3): ≥ 80 mg/kg

COC1C(O)C(C)OC(OC2C(Oc3cccc4c(OC(=O)Cc5cccs5)c5c(=O)oc6ccc(C)c7c(=O)oc(c34)c5c67)OC(C)C3OC(C)(C)OC32)C1O (stereo not drawn) [Compound 13]
response vs control in vivo at 40 mg/kg (P-388 leukemia cells; [3]): 134% | response vs control in vivo at 80 mg/kg (P-388 leukemia cells; [2]): 182% | LD50 ([1]; Preparation Example 3): ≥ 80 mg/kg

COC1C(O)C(C)OC(OC2C(Oc3cccc4c(OC(=O)c5ccco5)c5c(=O)oc6ccc(C)c7c(=O)oc(c34)c5c67)OC(C)C3OC(C)(C)OC32)C1O (stereo not drawn) [Compound 5]
response vs control in vivo at 80 mg/kg (P-388 leukemia cells; [2]): 217% | LD50 ([1]; Preparation Example 4): ≥ 80 mg/kg

COC1C(N)C(C)OC(OC2C(Oc3cccc4c(OC(=O)c5ccc(Cl)cc5)c5c(=O)oc6ccc(C)c7c(=O)oc(c34)c5c67)OC(C)C3OC(c4ccccc4)OC32)C1O (stereo not drawn) [Compound 52]
response vs control in vivo at 20 mg/kg (P-388 leukemia cells; [3]): 167% | LD50 ([1]; Preparation Example 6): ≥ 20 mg/kg

COC1C(N)C(C)OC(OC2C(Oc3cccc4c(OC(=O)CCNC=O)c5c(=O)oc6ccc(C)c7c(=O)oc(c34)c5c67)OC(C)C3OC(c4ccccc4)OC32)C1O (stereo not drawn) [Compound 42]
response vs control in vivo at 20 mg/kg (P-388 leukemia cells; [3]): 130% | response vs control in vivo at 40 mg/kg (P-388 leukemia cells; [3]): 199% | LD50 ([1]; Preparation Example 1): ≥ 40 mg/kg

COC1C(O)C(C)OC(OC2C(Oc3cccc4c(OC(=O)c5ccc[nH]5)c5c(=O)oc6ccc(C)c7c(=O)oc(c34)c5c67)OC(C)C3OC(c4ccccc4)OC32)C1O (stereo not drawn) [Compound 1]
response vs control in vivo at 20 mg/kg/day (P-388 leukemia cells; [3]): 154% | response vs control in vivo at 40 mg/kg/day (P-388 leukemia cells; [3]): 188% | LD50 ([1]; Preparation Example 1): ≥ 40 mg/kg

COC1C(N)C(C)OC(OC2C(Oc3cccc4c(OC(=O)CCNC(=O)c5ccccc5)c5c(=O)oc6ccc(C)c7c(=O)oc(c34)c5c67)OC(C)C3OC(c4cccc(F)c4)OC32)C1O (stereo not drawn) [Compound 55]
response vs control in vivo at 80 mg/kg (P-388 leukemia cells; [2]): 133% | LD50 ([1]; Preparation Example 6): ≥ 80 mg/kg

COC1C(O)C(C)OC(OC2C(Oc3cccc4c(OC(=O)c5cccs5)c5c(=O)oc6ccc(C)c7c(=O)oc(c34)c5c67)OC(C)C3OC(C)(C)OC32)C1O (stereo not drawn) [Compound 62]
T/C of MST (P-388 leukemia cells; dose f: 80 mg/kg/d × 3 (days 1, 5, 9)): 131% | LD50 ([1]; Preparation Example 2): ≥ 80 mg/kg

COc1ccc2[nH]c(C(=O)Oc3c4cccc(OC5OC(C)C6OC(c7ccccc7)OC6C5OC5OC(C)C(O)C(OC)C5O)c4c4oc(=O)c5c(C)ccc6oc(=O)c3c4c65)cc2c1 (stereo not drawn) [Compound 19, 6-O-{2-(5-methoxyindolyl)-carbonyl}-3',4'-O-benzylidene-chartreusin]
response vs control in vivo at 20 mg/kg (P-388 leukemia cells; [3]): 131% | response vs control in vivo at 40 mg/kg (P-388 leukemia cells; [3]): 165% | LD50 ([1]; Preparation Example 2): ≥ 40 mg/kg

COC1C(O)C(C)OC(OC2C(Oc3cccc4c(OC(=O)c5ccc6[nH]ccc6c5)c5c(=O)oc6ccc(C)c7c(=O)oc(c34)c5c67)OC(C)C3OC(c4ccccc4)OC32)C1O (stereo not drawn) [Compound 18]
response vs control in vivo at 20 mg/kg (P-388 leukemia cells; [3]): 167% | response vs control in vivo at 40 mg/kg (P-388 leukemia cells; [3]): 242% | LD50 ([1]; Preparation Example 2): ≥ 40 mg/kg

COC1C(O)C(C)OC(OC2C(Oc3cccc4c(OC(=O)C5CCCN5C(=O)CNC(=O)CNC(=O)OCc5ccccc5)c5c(=O)oc6ccc(C)c7c(=O)oc(c34)c5c67)OC(C)C3OC(c4ccccc4)OC32)C1O (stereo not drawn) [Compound 4]
response vs control in vivo at 20 mg/kg (P-388 leukemia cells; [3]): 138% | LD50 ([1]; Preparation Example 2): ≥ 20 mg/kg

COC1C(N)C(C)OC(OC2C(Oc3cccc4c(OC(=O)C(C)CNC(=O)C(F)(F)F)c5c(=O)oc6ccc(C)c7c(=O)oc(c34)c5c67)OC(C)C3OC(c4ccccc4)OC32)C1O (stereo not drawn) [Compound 40]
response vs control in vivo at 20 mg/kg (P-388 leukemia cells; [3]): 142% | response vs control in vivo at 40 mg/kg (P-388 leukemia cells; [3]): 219% | LD50 ([1]; Preparation Example 1): ≥ 40 mg/kg

— patent US4927919A, “Chartreusin derivatives and salts thereof” (Ishihara Sangyo Kaisha, Ltd., priority 1985, dated 1990)
